Data reported in US12545668B2, “Cyclic amine derivative as agent for promoting advillin function, and novel cyclic amine derivative and pharmaceutical use thereof” (Toray Industries, Inc., priority 2018, dated 2026).

Test system: F11 cells (rat dorsal root ganglion neuron cell line)
Test: Effect of decreasing intracellular actin filaments in F11 cells with oxaliplatin-induced axonal injury (phalloidin staining)
Format: cell-based
Conditions: F-11 rat/mouse fusion cell line, F11, 120 h, compound 10 μM with oxaliplatin 15 μM, 5 days; compared to oxaliplatin alone treated group; average of five samples; read-out: Decreasing Rate of Intracellular Actin Filament (%)
Source text: The effect of the cyclic amine derivative (I) or a pharmacologically acceptable salt thereof on the amount of intracellular actin filaments in F11 cells (rat dorsal root ganglion neuron cell line) was examined.
As test compounds, the compounds of Examples 1, 2, 3, 4, 5, 6, 7, 8, and 9 were used.
As compounds of comparative examples, 1-(4-(dimethylamino)piperidin-1-yl)-3-(1-ethyl-1H-imidazol-2-yl)-3-hydroxypropan-1-one (hereinafter, the compound of Comparative Example 1), 1-(4-(dimethylamino)piperidin-1-yl)-3-hydroxy-3-(1-(2,2,2-trifluoroethyl)-1H-imidazol-2-yl)propan-1-one (hereinafter, the compound of Comparative Example 2), 1-((R)-3-(dimethylamino)pyrrolidin-1-yl)-3-hydroxy-3-(1-methyl-1H-imidazol-2-yl)propan-1-one (hereinafter, the compound of Comparative Example 3), and 1-((R)-[…]-3-hydroxy-3-(1-methyl-1H-imidazol-2-yl)propan-1-one (hereinafter, the compound of Comparative Example 4) shown in Table 4 were used. The compounds of Comparative Examples 1, 2, 3, and 4 were synthesized in accordance with methods described in International Publication No. WO2016/136944.
For peeling the F11 cells off from a culture flask, 0.25% Trypsin/EDTA (manufactured by Thermo Fisher Scientific K.K.) was added to the cells, followed by incubation at room temperature for several minutes. Thereafter, 10% fetal bovine serum-containing DMEM medium (manufactured by Thermo Fisher Scientific K.K.) was added thereto for suspension, and the resultant centrifuged at 1,500 rpm for 1 minute. After removing the resultant centrifugal supernatant, 0.5% fetal bovine serum-containing DMEM medium was added thereto for suspending cells therein, and the resultant seeded in a poly-D-lysine-coated 96 well plate (manufactured by BD Biosciences) coated with laminin (2 μg/cm^2, manufactured by Sigma Aldrich) to be cultured at 37° C. under an environment of 5% CO2. Two hours after seeding the cells, N,N-dibutyladenosine 3′,5′-phosphate (final concentration 1 mM, manufactured by Sigma Aldrich) and recombinant rat GDNF (final concentration 50 ng/mL, manufactured by PeproTech) were added thereto to culture the cells at 37° C. under an environment of 5% CO2 for 7 days for differentiation.
Seven days after starting the culture, the medium was exchanged with 0.5% fetal bovine serum-containing DMEM medium containing oxaliplatin (final concentration 15 μM), and the resultant cultured for 5 days to induce axonal injury. Each of the compounds of Examples and Comparative Examples was caused to be contained in the medium (final concentration 10 μM) for treatment in the same manner as oxaliplatin.
Five days after treatment with oxaliplatin and each of the compounds, the resultant cells were washed with PBS(−) three times, a 4% paraformaldehyde-phosphate buffer (manufactured by Wako Pure Chemical Industries Ltd.) was added thereto, and the resultant allowed to stand still at room temperature for 10 minutes to fix the cells. Acti-stain 670 phalloidin (manufactured by Cytoskeleton Inc.) was added thereto, and the resultant incubated at room temperature for 30 minutes to stain actin filaments. An image of the cells was acquired using IN Cell Analyzer 2200 (manufactured by GE Healthcare), and the image analyzed using IN Cell Investigator Developer Toolbox. The amount of intracellular actin filaments was indicated by the amount of fluorescence (density) of fluorescent-labeled phalloidin binding to the actin filaments.
In a group treated with oxaliplatin alone (hereinafter, the oxaliplatin alone treated group), the amount of intracellular actin filaments increased by 5% compared to that in a group not treated with oxaliplatin. […] A decreasing rate of intracellular actin filaments, caused by each compound compared to the amount of intracellular actin filaments of the oxaliplatin alone treated group was calculated. […]

Row | Structure (SMILES) | inhibition at 10 µM [%]
1 | CN(C)C1CCN(C(=O)CC(O)c2nccn2CCC(F)(F)F)CC1 (stereo not shown) [Example 6, 1-(4-(dimethylamino)piperidin-1-yl)-3-(1-(3,3,3-trifluoropropyl)-1H-imidazol-2-yl)-3-hydroxypropan-1-one] | ≥ 5
2 | CN(C)[C@@H]1CCCN(C(=O)CC(O)c2nccn2C)C1 (stereo partly shown) [Comparative Example 4, reference compound] | ≤ 5
3 | CC(C)n1ccnc1C(O)CC(=O)N1CCC(N(C)C)CC1 (stereo not shown) [Example 3, 1-(4-(dimethylamino)piperidin-1-yl)-3-(1-isopropyl-1H-imidazol-2-yl)-3-hydroxypropan-1-one] | ≥ 5
4 | CN1CCN(C2CCN(C(=O)CC(O)c3nccn3C)CC2)CC1 (stereo not shown) [Example 8, 3-hydroxy-3-(1-methyl-1H-imidazol-2-yl)-1-(4-(4-methylpiperazin-1-yl)piperidin-1-yl)propan-1-one] | ≥ 5
5 | Cn1ccnc1C(O)CC(=O)N1CCC(N2CCOCC2)CC1 (stereo not shown) [Example 1, 3-hydroxy-3-(1-methyl-1H-imidazol-2-yl)-1-(4-morpholinopiperidin-1-yl)propan-1-one] | ≥ 5
6 | CN(C)C1CCN(C(=O)CC(O)c2ncc(Cl)n2C)CC1 (stereo not shown) [Example 4, 3-(5-chloro-1-methyl-1H-imidazol-2-yl)-1-(4-(dimethylamino)piperidin-1-yl)-3-hydroxypropan-1-one] | ≥ 5
7 | CN(C)C1CCN(C(=O)CC(O)c2nccn2CC(F)(F)F)CC1 (stereo not shown) [Comparative Example 2, 1-(4-(dimethylamino)piperidin-1-yl)-3-hydroxy-3-(1-(2,2,2-trifluoroethyl)-1H-imidazol-2-yl)propan-1-one, reference compound] | ≤ 5
8 | COCCn1ccnc1C(O)CC(=O)N1CCC(N(C)C)CC1 (stereo not shown) [Example 5, 1-(4-(dimethylamino)piperidin-1-yl)-3-(1-(2-methoxyethyl)-1H-imidazol-2-yl)-3-hydroxypropan-1-one] | ≥ 5

Same assay, conditions: oxaliplatin alone 15 μM, 5 days; p<0.05

Row | Structure (SMILES) | increase of the amount of intracellular actin filaments compared to a group not treated with oxaliplatin [%]
9 | O=C1[O][Pt]2([NH][C@@H]3CCCC[C@H]3[NH]2)[O]C1=O [oxaliplatin, reference compound] | 5

Test system: primary cultured cells of rat dorsal root ganglion
Test: Axon (neurite) extension in primary cultured cells of rat dorsal root ganglion with oxaliplatin-induced axonal injury
Format: cell-based
Conditions: oxaliplatin alone 3 μM, 7 days; p<0.05
Source text: The effect of the cyclic amine derivative (I) or a pharmacologically acceptable salt thereof on neurite extension in primary cultured cells of rat dorsal root ganglion was examined.
Male SD rats (manufactured by Charles River Laboratories Japan, Inc.) of 4 to 7 weeks old were used. Each rat was anesthetized by intraperitoneally administering urethane. After confirming that the rat was anesthetized, the rat was rapidly euthanized by exsanguination from the abdominal aorta. After incision of the dorsal part, the spinal column was excised and cooled on ice. The dorsal side of the spinal column was cut off, and the spinal cord was removed from the ventral side of the spinal column to expose the dorsal root ganglia on the ventral side of the spinal column. The dorsal root ganglia (L3 to 6, right and left) were excised with tweezers, and dipped in ice-cold Leibovitz's L-15 medium (manufactured by Thermo Fisher Scientific), and the bundles of nerve fibers were removed under a stereoscopic microscope. The dorsal root ganglia from which the bundles of nerve fibers had been removed were made fine slits with ophthalmic scissors to be used as dorsal root ganglion pieces.
The dorsal root ganglion pieces were dipped in about 3 mL of a solution of collagenase A (manufactured by Roche Molecular Systems, Inc.), followed by incubation at 37° C. for 20 minutes. After the incubation, the resultant was centrifuged at 200×g at 25° C. for 5 minutes to remove a collagenase A solution corresponding to the supernatant. About 1 mL of a solution of trypsin was added thereto, followed by incubation at 37° C. for 5 minutes. Subsequently, about 3 mL of DMEM (manufactured by Thermo Fisher Scientific K.K.) containing 10% fetal bovine serum was added to the resultant, the resultant centrifuged at 200×g at room temperature for 5 minutes, and then the supernatant removed. […]

Row | Structure (SMILES) | length of a neurite compared to the non-treated group
10 | O=C1[O][Pt]2([NH][C@@H]3CCCC[C@H]3[NH]2)[O]C1=O [oxaliplatin, reference compound] | significantly reduced
